Source: US20130096145A1, “Use of 1H-quinazoline-2,4-diones” (Novartis AG, priority 2010, published 2013)

Tested on: mouse
Test: Oral bioavailability: audiogenic mouse test and/or MES test
Format: in vivo
Conditions: oral administration
Method: The oral bioavailability was tested using the audiogenic mouse test (Audiogenic seizures, R. L. Collins; Chapter 14, pages: 347-372. In: Experimental Models of Epilepsy; By: Pupura, Penry, Tower, Woodbury, Walter, Raven Press, New York, 1972. Standard Book Number: 0-911216-26-X) and/or the MES test.
Compounds of the invention were tested in OF1 mice using the maximal electroshock test (MES Test) described in detail by Schmutz et al., Naunyn-Schmiedeberg's Arch Pharmacol 1990, 342, 61-66. Briefly, generalized tonic-clonic convulsions of the hind extremities were induced by passing electrical current through temporal electrodes (50 Hz, 18 mA, 0.2s). […] 30 mg/kg carbamazepine was used as a positive control; mice were classified as protected by a compound if the duration of the seizure lasted only 3 second or less. Five mice were used for each treatment condition and the percentage of protected mice was used as readout (i.e. a compound could give 0%, 20%, 40%, 60%, 80% or 100% protection). Compounds of the invention were given at a dose of 50 mg/kg, p.o., 1 hour prior to induction of convulsions (i.e. “pre-treatment time -1 h”). ED50 values (ED: effective dose) were calculated using GraphPad Prism, v4.02. 15 s after shock administration, mouse blood was collected for determination of compounds' blood exposure.

SMILES	In vivo orally active
CC(O)c1cc2c(=O)n(NS(C)(=O)=O)c(=O)[nH]c2cc1C(F)(F)F (centres unmarked) [Compound A-1, N-[6-(1-Hydroxy-ethyl)-2,4-dioxo-7-trifluoromethyl-1,4-dihydro-2H-quinazolin-3-yl]-methanesulfonamide]	Yes
COC(C)c1cc2c(=O)n(NS(C)(=O)=O)c(=O)[nH]c2cc1C(F)(F)F (centres unmarked) [Compound A-2, N-[6-(1-Methoxy-ethyl)-2,4-dioxo-7-trifluoromethyl-1,4-dihydro-2H-quinazolin-3-yl]-methanesulfonamide]	Yes
CCC(O)c1cc2c(=O)n(NS(C)(=O)=O)c(=O)[nH]c2cc1C(F)(F)F (centres unmarked) [Compound A-3, N-[6-(1-Hydroxy-propyl)-2,4-dioxo-7-trifluoromethyl-1,4-dihydro-2H-quinazolin-3-yl]-methanesulfonamide]	Yes
CC(C)OC(C)c1cc2c(=O)n(NS(C)(=O)=O)c(=O)[nH]c2cc1C(F)(F)F (centres unmarked) [Compound A-4, N-[6-(1-Isopropoxy-ethyl)-2,4-dioxo-7-trifluoromethyl-1,4-dihydro-2H-quinazolin-3-yl]-methanesulfonamide]	Yes
CCOC(C)c1cc2c(=O)n(NS(C)(=O)=O)c(=O)[nH]c2cc1C(F)(F)F (centres unmarked) [Compound A-5, N-[6-(1-Ethoxy-ethyl)-2,4-dioxo-7-trifluoromethyl-1,4-dihydro-2H-quinazolin-3-yl]-methanesulfonamide]	Yes
CCCOC(CC)c1cc2c(=O)n(NS(C)(=O)=O)c(=O)[nH]c2cc1C(F)(F)F (centres unmarked) [Compound A-6, N-[2,4-Dioxo-6-(1-propoxy-propyl)-7-trifluoromethyl-1,4-dihydro-2H-quinazolin-3-yl]-methanesulfonamide]	Yes
CCC(OC(C)C)c1cc2c(=O)n(NS(C)(=O)=O)c(=O)[nH]c2cc1C(F)(F)F (centres unmarked) [Compound A-7, N-[6-(1-isopropoxy-propyl)-2,4-dioxo-7-trifluoromethyl-1,4-dihydro-2H-quinazolin-3-yl]-methanesulfonamide]	Yes
CCOC(CC)c1cc2c(=O)n(NS(C)(=O)=O)c(=O)[nH]c2cc1C(F)(F)F (centres unmarked) [Compound A-13, N-[6-(1-Ethoxy-propyl)-2,4-dioxo-7-trifluoromethyl-1,4-dihydro-2H-quinazolin-3-yl]-methanesulfonamide]	Yes
CC(OC1CCCC1)c1cc2c(=O)n(NS(C)(=O)=O)c(=O)[nH]c2cc1C(F)(F)F (centres unmarked) [Compound A-14, N-[6-(1-Cyclopentyloxy-ethyl)-2,4-dioxo-7-trifluoromethyl-1,4-dihydro-2H-quinazolin-3-yl]-methanesulfonamide]	yes
CCCC(O)c1cc2c(=O)n(NS(C)(=O)=O)c(=O)[nH]c2cc1C(F)(F)F (centres unmarked) [Compound A-15, N-[6-(1-Hydroxy-butyl)-2,4-dioxo-7-trifluoromethyl-1,4-dihydro-2H-quinazolin-3-yl]-methanesulfonamide]	Yes
COCCC(O)c1cc2c(=O)n(NS(C)(=O)=O)c(=O)[nH]c2cc1C(F)(F)F (centres unmarked) [Compound A-18, N-[6-(1-Hydroxy-3-methoxy-propyl)-2,4-dioxo-7-trifluoromethyl-1,4-dihydro-2H-quinazolin-3-yl]-methanesulfonamide]	Yes
CS(=O)(=O)Nn1c(=O)[nH]c2cc(C(F)(F)F)c(C3CCCO3)cc2c1=O (centres unmarked) [Compound B-2, N-[2,4-Dioxo-6-(tetrahydro-furan-2-yl)-7-trifluoromethyl-1,4-dihydro-2H-quinazolin-3-yl]-methanesulfonamide]	Yes
CC(C)n1nccc1-c1cc2c(=O)n(NS(C)(=O)=O)c(=O)[nH]c2cc1C(F)(F)F [Compound C-2, N-[6-(2-Isopropyl-2H-pyrazol-3-yl)-2,4-dioxo-7-trifluoromethyl-1,4-dihydro-2H-quinazolin-3-yl]-methanesulfonamide]	Yes
COCCn1nccc1-c1cc2c(=O)n(NS(C)(=O)=O)c(=O)[nH]c2cc1C(F)(F)F [Compound C-4, N-{6-[2-(2-Methoxy-ethyl)-2H-pyrazol-3-yl]-2,4-dioxo-7-trifluoromethyl-1,4-dihydro-2H-quinazolin-3-yl}-methanesulfonamide]	Yes
CS(=O)(=O)Nn1c(=O)[nH]c2cc(C(F)(F)F)c(-c3ccnn3O)cc2c1=O [Compound C-5, N-[6-(2-Hydroxy-2H-pyrazol-3-yl)-2,4-dioxo-7-trifluoromethyl-1,4-dihydro-2H-quinazolin-3-yl]-methanesulfonamide]	Yes
CC(C)c1cc2[nH]c(=O)n(NS(C)(=O)=O)c(=O)c2cc1-c1ccnn1C [Compound C-7, N-[7-Isopropyl-6-(2-methyl-2H-pyrazol-3-yl)-2,4-dioxo-1,4-dihydro-2H-quinazolin-3-yl]-methanesulfonamide]	Yes
Cn1nccc1-c1cc2c(=O)n(NS(C)(=O)=O)c(=O)[nH]c2cc1C(F)F [Compound C-9, N-[7-Difluoromethyl-6-(2-methyl-2H-pyrazol-3-yl)-2,4-dioxo-1,4-dihydro-2H-quinazolin-3-yl]-methanesulfonamide]	Yes
CC(C)n1nccc1-c1cc2c(=O)n(NS(C)(=O)=O)c(=O)[nH]c2cc1C(F)F [Compound C-10, N-[7-Difluoromethyl-6-(2-isopropyl-2H-pyrazol-3-yl)-2,4-dioxo-1,4-dihydro-2H-quinazolin-3-yl]-methanesulfonamide]	Yes
CCc1cc2[nH]c(=O)n(NS(C)(=O)=O)c(=O)c2cc1-c1ccnn1C [Compound C-11, N-[7-Ethyl-6-(2-methyl-2H-pyrazol-3-yl)-2,4-dioxo-1,4-dihydro-2H-quinazolin-3-yl]-methanesulfonamide]	Yes
CCc1cc2[nH]c(=O)n(NS(C)(=O)=O)c(=O)c2cc1-c1ccnn1CC [Compound C-12, N-[7-Ethyl-6-(2-ethyl-2H-pyrazol-3-yl)-2,4-dioxo-1,4-dihydro-2H-quinazolin-3-yl]-methanesulfonamide]	Yes
CC(C)n1nccc1-c1cc2c(=O)n(NS(C)(=O)=O)c(=O)[nH]c2cc1C(C)(F)F [Compound C-16, N-[7-(1,1-difluoro-ethyl)-6-(2-isopropyl-2H-pyrazol-3-yl)-2,4-dioxo-1,4-dihydro-2H-quinazolin-3-yl]-methanesulfonamide]	Yes
CC(F)c1cc2[nH]c(=O)n(NS(C)(=O)=O)c(=O)c2cc1-c1ccnn1C(C)C (centres unmarked) [Compound C-17, N-[7-(1-fluoro-ethyl)-6-(2-isopropyl-2H-pyrazol-3-yl)-2,4-dioxo-1,4-dihydro-2H-quinazolin-3-yl]-methanesulfonamide]	Yes
Cn1nccc1-c1cc2c(=O)n(NS(C)(=O)=O)c(=O)[nH]c2cc1C(F)(F)F [Compound C-18, N-[6-(2-Methyl-2H-pyrazol-3-yl)-2,4-dioxo-7-trifluoromethyl-1,4-dihydro-2H-quinazolin-3-yl]-methanesulfonamide]	Yes
